The values below come from paper PMC6128562, “Evaluation of cytotoxicity features of antimicrobial peptides with potential to control bacterial diseases of citrus” (PLoS ONE, 2018).

Where no end group is shown, it is not given here.

The test system of one series is Methylobacterium sp. It counts as cell-based. To be noted: ND = higher than the concentrations evaluated. The source says: (§1) Two important citrus pathogenic bacteria were addressed in our study: X.citri (isolate 306), the causal agent of citrus canker, and CaLas, causal agent of HLB. Since the latter cannot be cultivated in vitro, surrogates phylogenetically related to CaLas were used in the assays. The surrogates chosen were S. meliloti SEMIA 165 (= USDA 1002) and A. tumefaciens (GV3101/PMP90), provided by FEPAGRO (Fundação Estadual de Pesquisa Agropecuária) and by Dr. Janete Desidério, UNESP (Universidade Estadual Paulista, Jaboticabal, São Paulo, Brazil). The effect of the AMPs on Methylobacterium sp., an endophytic commonly found at citrus in Brazil and kindly provided by Dr. Wellington Luiz Araújo, Instituto de Ciências Biomédicas, Universidade de São Paulo, Brazil, was also assessed. Methylobacterium sp. and X.citri was cultured in NBY solid medium and then in NBY liquid medium according to Amaral et al. for 48 hours at 28°C and 180 rpm. S. meliloti and A. tumefaciens were grown in YM medium (Yeast Mannitol Medium) (0.5 g/L KH2PO4, 0.2 g/L MgSO4 7.H2O, 0.1g/L NaCl, 10 g/L mannitol, 0.5 g/L yeast extract, 9g/L agar, pH 6.8) and then in YM liquid medium for 48 hours at 28°C and 180 rpm. In addition to the in vitro assays, X.citri::GFP [35], obtained from Dr. Adrián A. Vojnov (Instituto de Ciencia y Tecnología Dr. Cesar Milstein, Fundación Pablo Cassará, Consejo Nacional de Investigaciones Científicas y Técnicas (CONICET), Buenos Aires / Argentina), was used for the in vivo assays.
(§2) Antimicrobial peptide activity was performed in vitro using a microliter plate assay (96 well cell culture cluster—Costar®3599). Fifty microliters of inoculum at 10^4 CFU/mL prepared in PBS buffer (Phosphate buffered saline) was mixed with 50 μL of the peptide diluted in distilled water filter sterilized (dH2O). The final concentration of peptide evaluated ranged from 1–64 μM, and hylin-a1 and PBS were used as positive and negative control for AMP, respectively. […] Three replicates were prepared for each concentration evaluated.
(§3) At the end of the growth incubation, minimum bactericidal concentration (MBC) for each organism was determined by serial dilution using the microdrop technique, as described elsewhere. The Petri dishes were maintained at 28°C for three days to obtain CFU/mL.

Series [1] concerns Sinorhizobium meliloti SEMIA 165. It counts as cell-based. To be noted: ND = higher than the concentrations evaluated; for MIC S. meliloti: microplate, inoculum 10^4 CFU/mL in PBS, peptide 1–64 μM, 595 nm, three replicates; for MBC S. meliloti: serial dilution, microdrop technique, 28°C three days.
Source text: as §1, §2, §3

The subject of series [2] is Xanthomonas citri subsp. citri (X.citri, isolate 306). It counts as cell-based. To be noted: ND = higher than the concentrations evaluated.
Source text: as §1, §2, §3

The next series relates to human erythrocytes. To be noted: cited from earlier work. The text has this:
Ocellatin4 ([…]-NH(2)) is a cytolytic peptide obtained from skin secretion of the South American frog Leptodactylus ocellatus. The analogue of this peptide named as, Ocellatin4-analogue ([…]) has positive charge at its N-terminus (lysine residue), similarly to K^0-W^6-Hy-a1.

Series [3] has as its system Galleria mellonella larvae. Description: Toxicity in Galleria mellonella larvae. It counts as in vivo. To be noted: for Median (%survival): over Experiments 1 and 2; for survival percentages of larvae: at 64 and 128 μM. The protocol: The peptides citrus–amp1 and citrus–amp2 were selected for toxicity assay in G. mellonella. Larvae with 0.15 to 0.20 g were randomly selected for the experiments and were kept without food in Petri plates at 37°C in the dark for 24 h prior to use. Each larva was injected with 10 μL of peptides at 64 and 128 μM into the last proleg using a Hamilton micro-syringe. […] The larvae were incubated at 37°C and survival was evaluated daily for 7 days. Group of 8–9 larvae was used to each concentration of peptides and 10 μL of PBS was injected in the control group. Two independent experiments were performed.

In a further series the test system is U87 MG cells. Description: Cytotoxicity in U87 MG cells (alamarBlue). It counts as cell-based, human. To be noted: concentrations of 1–128 μM, 24 h. The protocol:
U87 MG, a human Glioblastoma cell line frequently used as a model for cytotoxicity evaluation was adopted in our study for the peptides citrus–amp1 and citrus–amp2. Cells were plated in 96 wells plate (5x10^4 cells per well), incubated overnight and maintained in a humidified atmosphere at 37°C and 5% CO2. After the incubation period, cells were treated with peptides varying from 1μM to 128 μM and then incubated for 24h. Untreated and cells treated with DMSO (dimethyl sulfoxide) were used as positive and negative control for the viability of U87 MG cells. Six replicates were done by each concentration.
Cytotoxicity was performed using alamarBlue® cell viability reagent, a cell health indicator, through the reduction of […] of living cells. Viable cells convert Resazurin (blue) to resorufin, a compound that emits red fluorescent light. Alamar Blue medium was prepared by mixing medium with alamarBlue solution (Thermo Ficher Scientific) in a ratio of 10:1. After treatment with the peptides for 24 h, the medium was discarded, and Alamar Blue medium (100 μL) was transferred to a 96-well microplate. The microplates were incubated with Alamar Blue at 37°C for 4 h, and absorbance was measured using Epoch2 Microplate Reader (Biotek) in 570 nm. Cell viability was calculated using the ratio of the absorbance between treated and untreated cells and the data were expressed as percentages. […]

For a further series, the system named is tobacco leaves. To be noted: 24 hpi; leaves started to dry out 12 hpi; cited from earlier work. As to the method: The peptide Hylin-1 and PBS buffer were used as positive and negative controls of the phytotoxicity assay, respectively. At seven days post inoculation (7 dpi), visual evaluation was performed in detached leaves. […] Makovitzki et al. assessed the toxicity of peptide C14-KLLK in tobacco leaves.

[4] abbreviates: microplate, inoculum 10^4 CFU/mL in PBS, peptide 1–64 μM, 595 nm, three replicates.
Setting [5] is: serial dilution, microdrop technique, 28°C three days.
Where [6] appears, read: 64 µM, Experiment 1, 7 days, n=8–9 larvae.
Setting [7] is: 64 µM, Experiment 2, 7 days, n=8–9 larvae.
Where [8] appears, read: 128 µM, Experiment 1, 7 days, n=8–9 larvae.
The mark [9] stands for this setting: 128 µM, Experiment 2, 7 days, n=8–9 larvae.
[10] abbreviates: 10 μL of 64 μM injected, 37°C, 7 days, mean±SD of two experiments, 8–9 larvae.
Where [11] appears, read: 10 μL of 128 μM injected, 37°C, 7 days, mean±SD of two experiments, 8–9 larvae.

For the substance KIFGAIWPLALGALKNLIK [K^0-W^6-Hy-a1], the “MIC Met sp.” value against Methylobacterium sp. (setting [4]) is 4 µM. For the same substance, the “MBC Met sp.” value against Methylobacterium sp. (setting [5]) amounted to 8 µM. Besides, in series [1], the “MIC S. meliloti” value turned out to be 4 µM and the “MBC S. meliloti” value worked out at 62 µM. In series [2] (setting [4]), the “MIC X.ciri” value is 2 µM. Further, the “MBC X.ciri” value in series [2] (setting [5]) was 2 µM.
In the case of “GLLDFVTGVGKDIFAQLIKQI-NH(2) [ocellatin 4, cytolytic peptide from skin secretion of the frog Leptodactylus ocellatus]”, the “activity on human erythrocytes at” value in the series with human erythrocytes is listed as 14.3 mmol/L.
Regarding LESLASSAVRTANKARAKL [Citrus-amp2], the “MIC S. meliloti” value in series [1] worked out at 64 µM. Besides, the “MBC S. meliloti” value in series [1] is 64 µM. For the same substance, the “% survival” value is on record as 100% in series [3] (setting [6]); 75% in series [3] (setting [7]); 100% in series [3] (setting [8]); 87.5% in series [3] (setting [9]); 87.50 ± 17.68% in series [3] (setting [10]); 93.75 ± 8.84% in series [3] (setting [11]). The “Median (%survival)” value in series [3] (64 µM) was 87.5%; in series [3] (128 µM), 93.8%. Also, the “survival percentages of larvae” value in series [3] is > 87%. Further, the “viability percentages of cells” value with U87 MG cells is reported as > 70%.
Regarding IETFLKQLRSAANKIVGL [Citrus-amp1], the “% survival” value in series [3] (setting [6]) is 88.9%; in series [3] (setting [7]) it was 88.9%; in series [3] (setting [8]) it was 100%; in series [3] (setting [9]), 88.9%; in series [3] (setting [10]), 88.89 ± 0%; in series [3] (setting [11]), 94.50 ± 7.85%. The “Median (%survival)” value in series [3] (64 µM) is 88.9%; in series [3] (128 µM), 94.5%. Also, the “survival percentages of larvae” value in series [3] is reported as > 87%.
On to mellittin, for which the “toxicity in tobacco leaves at the inoculation point” value in the series with tobacco leaves is recorded as “necrosis”.
